Reference: paper PMC10180054, “Design, Synthesis and Biological Evaluation of Novel Pleuromutilin Derivatives Containing 6-Chloro-1-R-1H-pyrazolo[3,4-d]pyrimidine-4-amino Side Chain” (Molecules, 2023)
≈ marks a conversion by molar mass, not a printed value.

Key:
MRSA ATCC 43300 = experiment: MIC/MBC by broth dilution (CLSI); format: cell-based, Staphylococcus aureus; conditions: Staphylococcus aureus; for MIC: MRSA ATCC 43300, broth dilution, 24 h, 37 °C, read-out: MIC; for MBC: MRSA ATCC 43300, 99.9% of the bacteria killed
Method: (§1) The in vitro antimicrobial activity of the pleuromutilin derivatives was assessed against MRSA ATCC 43300, S. aureus ATCC 29213, S. aureus 144 and S. aureus AD3 according to the Clinical and Laboratory Standards Institute (CLSI). Tiamulin was used as a positive control drug. The results were summarized as the minimum inhibitory concentration (MIC) and the minimum bactericidal concentration (MBC) in Table 1 and Table 2. In addition, MIC results for the pleuromutilin derivatives against four Gram-negative bacteria are supplied in Tables S2 and S3.
(§2) The MIC and MBC values of the synthesized novel pleuromutilin derivatives against MRSA ATCC 43300, S. aureus ATCC 29213, S. aureus 144 and S. aureus AD3 were measured. Tiamulin was used as a positive control drug. The MIC and MBC values were manipulated by broth dilution according to the Clinical and Laboratory Standards (CLSI). Each compound to be measured was dissolved in a solution of 95% deionized water, 2.5% dimethyl sulfoxide (DMSO) and 2.5% Tween-80 with a concentration of 1280 µg/mL. Subsequently, serial twofold dilutions were made in a concentration range from 64 µg/mL to 0.0625 µg/mL. The working bacterial suspension was inoculated into each well, which provided the final inoculum density of 5 × 10^5 CFU/mL. Three parallel experiments were performed for each compound.
(§3) Overall, 25 µL of the bacterial solution from the wells with no obvious bacterial growth was inoculated on MH agar plates. Then, the inoculated MH agar plates were further cultured at 37 °C for 24 h.

S. aureus 144 = experiment: MIC/MBC by broth dilution (CLSI); format: cell-based; conditions: Staphylococcus aureus; S. aureus 144 (clinical strain)
Method: as §1, §2, §3

S. aureus AD3 = experiment: MIC/MBC by broth dilution (CLSI); format: cell-based; conditions: Staphylococcus aureus, S. aureus AD3 (clinical strain)
Method: as §1, §2, §3

S. aureus ATCC 29213 = experiment: MIC/MBC by broth dilution (CLSI); format: cell-based; conditions: Staphylococcus aureus, ATCC29213; for MIC: S. aureus ATCC 29213, broth dilution, 24 h, 37 °C; for MBC: S. aureus ATCC 29213
Method: as §1, §2, §3

SMILES | MIC (MRSA ATCC 43300) [µg/mL] | MIC (S. aureus 144) [µg/mL] | MIC (S. aureus AD3) [µg/mL] | MIC (S. aureus ATCC 29213) [µg/mL] | melting point [°C] | MBC (MRSA ATCC 43300) [µg/mL] | MBC (S. aureus 144) [µg/mL] | MBC (S. aureus AD3; 24 h) [µg/mL] | MIC (S. aureus AD3; 24 h) [µg/mL] | MBC (S. aureus ATCC 29213) [µg/mL] | MBC (S. aureus AD3) [µg/mL]
C=C[C@]1(C)C[C@@H](OC(=O)CSc2ccc(Nc3nc(Cl)nc4c3cnn4-c3cc(C)cc(C)c3)cc2)[C@]2(C)[C@H](C)CC[C@]3(CCC(=O)[C@H]32)[C@@H](C)[C@@H]1O [Compound 15c, 22-[4-(6-Chloro-1-(3,5-dimethylphenyl)-1H-pyrazolo[3,4-d]pyrimidine-4-yl)amino-Phenylsulfanyl]-22-deoxypleuromutilin] | > 64 | > 64 | > 64 | > 64 | 92 to 95 | – | – | – | – | – | –
C=C[C@]1(C)C[C@@H](OC(=O)CSc2ccc(Nc3nc(Cl)nc4c3cnn4-c3ccc(CC)cc3)cc2)[C@]2(C)[C@H](C)CC[C@]3(CCC(=O)[C@H]32)[C@@H](C)[C@@H]1O [Compound 16c, 22-[4-(6-Chloro-1-(4-ethylphenyl)-1H-pyrazolo[3,4-d]pyrimidine-4-yl)amino-Phenylsulfanyl]-22-deoxypleuromutilin] | > 64 | > 64 | > 64 | > 64 | 97 to 99 | – | – | – | – | – | –
C=C[C@]1(C)C[C@@H](OC(=O)CNc2nc(Cl)nc3c2cnn3-c2cc(Cl)cc(Cl)c2)[C@]2(C)[C@H](C)CC[C@]3(CCC(=O)[C@H]32)[C@@H](C)[C@@H]1O [Compound 26b, 22-[(6-Chloro-1-(3,5-dichlorophenyl)-1H-pyrazolo[3,4-d]pyrimidine-4-yl)amino]-22-deoxypleuromutilin] | > 64 | > 64 | > 64 | > 64 | 151 to 156 | – | – | – | – | – | –
C=C[C@]1(C)C[C@@H](OC(=O)CSc2ccc(Nc3nc(Cl)nc4c3cnn4-c3cccc([N+](=O)[O-])c3)cc2)[C@]2(C)[C@H](C)CC[C@]3(CCC(=O)[C@H]32)[C@@H](C)[C@@H]1O [Compound 27c, 22-[4-(6-Chloro-1-(3-nitrophenyl)-1H-pyrazolo[3,4-d]pyrimidine-4-yl)amino-Phenylsulfanyl]-22-deoxypleuromutilin] | > 64 | > 64 | > 64 | > 64 | 137 to 139 | – | – | – | – | – | –
C=C[C@]1(C)C[C@@H](OC(=O)CSc2ccc(Nc3nc(Cl)nc4c3cnn4-c3ccc(F)cc3F)cc2)[C@]2(C)[C@H](C)CC[C@]3(CCC(=O)[C@H]32)[C@@H](C)[C@@H]1O [Compound 20c, 22-[4-(6-Chloro-1-(2,4-difluorophenyl)-1H-pyrazolo[3,4-d]pyrimidine-4-yl)amino-Phenylsulfanyl]-22-deoxypleuromutilin] | > 64 | > 64 | > 64 | > 64 | 132 to 134 | – | – | – | – | – | –
C=C[C@]1(C)C[C@@H](OC(=O)CSc2ccc(Nc3nc(Cl)nc4c3cnn4-c3ccc(C)cc3)cc2)[C@]2(C)[C@H](C)CC[C@]3(CCC(=O)[C@H]32)[C@@H](C)[C@@H]1O [Compound 13c, 22-[4-(6-Chloro-1-(4-methylphenyl)-1H-pyrazolo[3,4-d]pyrimidine-4-yl)amino-phenylsulfanyl]-22-deoxypleuromutilin] | 8 (≈ 11 µM) | 16 (≈ 22 µM) | – | 8 (≈ 11 µM) | 101 to 105 | > 64 | > 64 | > 64 | 4 (≈ 5.49 µM) | > 64 | –
C=C[C@]1(C)C[C@@H](OC(=O)CSc2ccc(Nc3nc(Cl)nc4c3cnn4-c3cc(Cl)cc(Cl)c3)cc2)[C@]2(C)[C@H](C)CC[C@]3(CCC(=O)[C@H]32)[C@@H](C)[C@@H]1O [Compound 26c, 22-[4-(6-Chloro-1-(3,5-dichlorophenyl)-1H-pyrazolo[3,4-d]pyrimidine-4-yl)amino-Phenylsulfanyl]-22-deoxypleuromutilin] | > 64 | > 64 | > 64 | > 64 | 137 to 139 | – | – | – | – | – | –
C=C[C@]1(C)C[C@@H](OC(=O)CNc2nc(Cl)nc3c2cnn3-c2cccc(OC)c2)[C@]2(C)[C@H](C)CC[C@]3(CCC(=O)[C@H]32)[C@@H](C)[C@@H]1O [Compound 17b, 22-[(6-Chloro-1-(3-methoxyphenyl)-1H-pyrazolo[3,4-d]pyrimidine-4-yl)amino]-22-deoxypleuromutilin] | > 64 | > 64 | > 64 | > 64 | 99 to 104 | – | – | – | – | – | –
C=C[C@]1(C)C[C@@H](OC(=O)CSc2ccc(Nc3nc(Cl)nc4c3cnn4-c3ccc(C)c(C)c3)cc2)[C@]2(C)[C@H](C)CC[C@]3(CCC(=O)[C@H]32)[C@@H](C)[C@@H]1O [Compound 14c, 22-[4-(6-Chloro-1-(3,4-dimethylphenyl)-1H-pyrazolo[3,4-d]pyrimidine-4-yl)amino-Phenylsulfanyl]-22-deoxypleuromutilin] | > 64 | > 64 | > 64 | > 64 | 103 to 105 | – | – | – | – | – | –
C=C[C@]1(C)C[C@@H](OC(=O)CNc2nc(Cl)nc3c2cnn3-c2ccc3ccccc3c2)[C@]2(C)[C@H](C)CC[C@]3(CCC(=O)[C@H]32)[C@@H](C)[C@@H]1O [Compound 28b, 22-[(6-Chloro-1-(naphthalen-2-yl)-1H-pyrazolo[3,4-d]pyrimidine-4-yl)amino]-22-deoxypleuromutilin] | 32 (≈ 48.8 µM) | 32 (≈ 48.8 µM) | 32 (≈ 48.8 µM) | 32 (≈ 48.8 µM) | 123 to 125 | > 64 | > 64 | – | – | > 64 | > 64
C=C[C@]1(C)C[C@@H](OC(=O)CSc2ccc(Nc3nc(Cl)nc4c3cnn4-c3ccc(Cl)cc3)cc2)[C@]2(C)[C@H](C)CC[C@]3(CCC(=O)[C@H]32)[C@@H](C)[C@@H]1O [Compound 25c, 22-[4-(6-Chloro-1-(4-chlorophenyl)-1H-pyrazolo[3,4-d]pyrimidine-4-yl)amino-Phenylsulfanyl]-22-deoxypleuromutilin] | 8 (≈ 10.7 µM) | > 64 | 8 (≈ 10.7 µM) | 16 (≈ 21.4 µM) | 124 to 129 | 16 (≈ 21.4 µM) | – | – | – | > 64 | 32 (≈ 42.7 µM)
C=C[C@]1(C)C[C@@H](OC(=O)CSc2ccc(Nc3nc(Cl)nc4c3cnn4-c3cccc(OC)c3)cc2)[C@]2(C)[C@H](C)CC[C@]3(CCC(=O)[C@H]32)[C@@H](C)[C@@H]1O [Compound 17c, 22-[4-(6-Chloro-1-(3-methoxyphenyl)-1H-pyrazolo[3,4-d]pyrimidine-4-yl)amino-Phenylsulfanyl]-22-deoxypleuromutilin] | > 64 | > 64 | > 64 | > 64 | 97 to 102 | – | – | – | – | – | –
C=C[C@]1(C)C[C@@H](OC(=O)CSc2ccc(Nc3nc(Cl)nc4c3cnn4-c3ccccc3F)cc2)[C@]2(C)[C@H](C)CC[C@]3(CCC(=O)[C@H]32)[C@@H](C)[C@@H]1O [Compound 18c, 22-[4-(6-Chloro-1-(2-fluorophenyl)-1H-pyrazolo[3,4-d]pyrimidine-4-yl)amino-Phenylsulfanyl]-22-deoxypleuromutilin] | > 64 | > 64 | > 64 | > 64 | 123 to 127 | – | – | – | – | – | –
C=C[C@]1(C)C[C@@H](OC(=O)CNc2nc(Cl)nc3c2cnn3-c2ccc(C)cc2)[C@]2(C)[C@H](C)CC[C@]3(CCC(=O)[C@H]32)[C@@H](C)[C@@H]1O [Compound 13b, 22-[(6-Chloro-1-(4-methylphenyl)-1H-pyrazolo[3,4-d]pyrimidine-4-yl)amino]-22-deoxypleuromutilin] | 16 (≈ 25.8 µM) | 32 (≈ 51.6 µM) | 16 (≈ 25.8 µM) | 32 (≈ 51.6 µM) | – | 32 (≈ 51.6 µM) | > 64 | – | – | > 64 | > 64
C=C[C@]1(C)C[C@@H](OC(=O)CNc2nc(Cl)nc3c2cnn3-c2ccc(OC(F)(F)F)cc2)[C@]2(C)[C@H](C)CC[C@]3(CCC(=O)[C@H]32)[C@@H](C)[C@@H]1O [Compound 23b, 22-[(6-Chloro-1-(4-(trifluoromethoxy)Phenyl)-1H-pyrazolo[3,4-d]pyrimidine-4-yl)amino]-22-deoxypleuromutilin] | > 64 | > 64 | > 64 | > 64 | – | – | – | – | – | – | –
C=CC1(C)CC(OC(=O)CSc2ccc(N)cc2)C2(C)C(C)CCC3(CCC(=O)C32)C(C)C1O (centres unmarked) [Compound 32, 22-(4-Amino-phenylsulfanyl)deoxypleuromutilin] | 0.0015 (≈ 0.00309 µM) | 0.003 (≈ 0.00618 µM) | – | 0.0015 (≈ 0.00309 µM) | – | – | – | – | 0.0015 (≈ 0.00309 µM) | – | –
